Assay results published in PMC8580884, “A Novel System for Evaluating the Inhibition Effect of Drugs on Cytochrome P450 Enzymes in vitro Based on Human-Induced Hepatocytes (hiHeps)” (Frontiers in Pharmacology, 2021).

Columns and labels:
CYP2C9 = target: T1, CYP2C9 (Homo sapiens, UniProt P11712); assay: intact hiHeps cells, metabolite by UPLC-MS/MS, Lineweaver-Burk; assay type: cell-based; details: hepatocytes
T1 construct: native enzyme in human liver microsomes (IC50) or human-induced hepatocytes hiHeps (Km); read by diclofenac to 4'-hydroxydiclofenac
T1 sequence (P11712 whole entry): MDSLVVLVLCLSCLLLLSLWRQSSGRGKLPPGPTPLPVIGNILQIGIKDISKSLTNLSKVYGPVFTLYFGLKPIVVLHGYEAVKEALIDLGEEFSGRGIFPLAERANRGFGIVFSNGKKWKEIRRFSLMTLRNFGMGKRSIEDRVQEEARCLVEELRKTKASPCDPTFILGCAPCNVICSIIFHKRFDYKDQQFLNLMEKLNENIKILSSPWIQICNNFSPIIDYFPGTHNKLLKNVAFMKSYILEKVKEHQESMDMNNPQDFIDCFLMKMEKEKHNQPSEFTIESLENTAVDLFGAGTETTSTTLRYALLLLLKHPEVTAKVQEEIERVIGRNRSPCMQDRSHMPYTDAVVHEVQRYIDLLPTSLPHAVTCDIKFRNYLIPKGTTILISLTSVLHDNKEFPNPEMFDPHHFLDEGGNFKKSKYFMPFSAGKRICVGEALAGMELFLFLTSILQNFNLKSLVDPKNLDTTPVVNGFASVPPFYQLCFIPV

CYP2B6 [1] = target: T2, CYP2B6 (Homo sapiens, UniProt P20813); assay: as above; assay type: cell-based; details: hepatocytes
T2 construct: native enzyme in human liver microsomes (IC50) or human-induced hepatocytes hiHeps (Km); read by bupropion to hydroxybupropion
T2 sequence (P20813 1-491): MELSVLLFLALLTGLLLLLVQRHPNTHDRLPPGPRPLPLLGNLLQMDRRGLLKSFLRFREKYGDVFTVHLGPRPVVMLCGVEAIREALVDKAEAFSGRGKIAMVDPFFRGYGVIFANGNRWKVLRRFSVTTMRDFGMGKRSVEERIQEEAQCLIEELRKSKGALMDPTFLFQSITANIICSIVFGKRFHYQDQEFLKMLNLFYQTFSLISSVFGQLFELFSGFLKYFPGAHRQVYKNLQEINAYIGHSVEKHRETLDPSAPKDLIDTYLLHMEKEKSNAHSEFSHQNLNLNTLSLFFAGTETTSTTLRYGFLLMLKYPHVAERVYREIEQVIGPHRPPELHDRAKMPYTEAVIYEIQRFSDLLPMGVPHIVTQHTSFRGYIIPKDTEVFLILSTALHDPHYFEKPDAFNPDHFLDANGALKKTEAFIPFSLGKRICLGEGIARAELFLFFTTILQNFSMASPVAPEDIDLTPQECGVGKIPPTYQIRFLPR

CYP3A4 [2] = target: T3, CYP3A4 (Homo sapiens, UniProt P08684); assay: as above; assay type: cell-based
T3 construct: native enzyme in human liver microsomes (IC50) or human-induced hepatocytes hiHeps (Km); read by midazolam to 1'-hydroxymidazolam (CYP3A5 may contribute)
T3 sequence (P08684 2-503): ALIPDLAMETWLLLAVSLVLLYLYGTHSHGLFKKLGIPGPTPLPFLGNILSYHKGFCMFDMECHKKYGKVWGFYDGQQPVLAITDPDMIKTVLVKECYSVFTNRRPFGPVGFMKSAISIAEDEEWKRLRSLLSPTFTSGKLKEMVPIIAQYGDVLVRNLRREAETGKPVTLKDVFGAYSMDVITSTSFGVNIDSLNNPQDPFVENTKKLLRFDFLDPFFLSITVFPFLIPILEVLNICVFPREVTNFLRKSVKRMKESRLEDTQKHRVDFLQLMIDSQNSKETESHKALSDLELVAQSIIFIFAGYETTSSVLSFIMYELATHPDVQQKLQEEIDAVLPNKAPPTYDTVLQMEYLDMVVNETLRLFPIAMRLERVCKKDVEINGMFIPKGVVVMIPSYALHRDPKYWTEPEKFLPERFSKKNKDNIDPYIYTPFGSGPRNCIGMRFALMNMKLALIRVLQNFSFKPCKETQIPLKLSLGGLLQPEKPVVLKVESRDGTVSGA

CYP3A4 [3] = target: T3, CYP3A4; assay: human liver microsomes, cocktail probe assay, UPLC-MS/MS; assay type: biochemical; details: 10 μM midazolam in five-probe cocktail, NADPH, MgCl2, alamethicin, 37°C, 60 min; read-out: IC50 (μM) / HLM
Source text: human liver microsomes, cocktail probe assay, UPLC-MS/MS on CYP3A4

CYP2C19 = target: T4, CYP2C19 (Homo sapiens, UniProt P33261); assay: as above; assay type: biochemical; details: read-out: IC50 (μM) / HLM
T4 construct: native enzyme in human liver microsomes (IC50) or human-induced hepatocytes hiHeps (Km)
T4 sequence (P33261 whole entry): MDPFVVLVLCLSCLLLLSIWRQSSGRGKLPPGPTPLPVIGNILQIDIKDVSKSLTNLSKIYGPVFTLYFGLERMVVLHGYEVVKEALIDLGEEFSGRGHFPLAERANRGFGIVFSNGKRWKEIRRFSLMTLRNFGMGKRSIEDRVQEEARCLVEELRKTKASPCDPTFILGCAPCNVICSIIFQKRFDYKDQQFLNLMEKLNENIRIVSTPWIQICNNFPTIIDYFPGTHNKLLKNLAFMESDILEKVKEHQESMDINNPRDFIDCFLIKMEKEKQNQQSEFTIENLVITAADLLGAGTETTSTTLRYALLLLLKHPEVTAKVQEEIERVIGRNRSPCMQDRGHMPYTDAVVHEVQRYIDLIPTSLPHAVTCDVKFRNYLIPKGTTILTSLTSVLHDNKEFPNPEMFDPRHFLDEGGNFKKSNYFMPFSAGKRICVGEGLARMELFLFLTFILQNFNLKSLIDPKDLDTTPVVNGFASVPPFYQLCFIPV
Source text: human liver microsomes, cocktail probe assay, UPLC-MS/MS on CYP2C19

CYP2B6 [4] = target: T2, CYP2B6; assay: as above; assay type: biochemical; details: read-out: IC50 (μM) / HLM
Source text: human liver microsomes, cocktail probe assay, UPLC-MS/MS on CYP2B6

CYP1A2 = target: T5, CYP1A2 (Homo sapiens, UniProt P05177); assay: as above; assay type: biochemical; details: read-out: IC50 (μM) / HLM
T5 construct: native enzyme in pooled human liver microsomes (IC50) or human-induced hepatocytes hiHeps (Km); read by phenacetin to acetaminophen
T5 sequence (P05177 2-516): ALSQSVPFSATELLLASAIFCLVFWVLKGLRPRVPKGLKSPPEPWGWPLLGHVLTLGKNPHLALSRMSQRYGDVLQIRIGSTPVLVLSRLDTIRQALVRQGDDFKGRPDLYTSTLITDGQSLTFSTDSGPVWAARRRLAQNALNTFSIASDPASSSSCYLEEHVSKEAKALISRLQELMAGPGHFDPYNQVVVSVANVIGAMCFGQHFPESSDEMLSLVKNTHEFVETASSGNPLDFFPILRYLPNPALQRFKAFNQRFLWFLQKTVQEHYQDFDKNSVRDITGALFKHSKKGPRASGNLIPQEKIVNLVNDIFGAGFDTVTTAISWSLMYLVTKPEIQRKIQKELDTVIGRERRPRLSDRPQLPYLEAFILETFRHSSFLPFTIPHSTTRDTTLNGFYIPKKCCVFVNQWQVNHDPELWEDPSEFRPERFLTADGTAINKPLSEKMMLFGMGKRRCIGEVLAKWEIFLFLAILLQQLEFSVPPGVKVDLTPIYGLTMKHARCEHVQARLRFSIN
Source text: human liver microsomes, cocktail probe assay, UPLC-MS/MS on CYP1A2

`O=C(O)Cc1ccccc1Nc1c(Cl)cccc1Cl` [diclofenac] was tested, and the Km (CYP2C9) was 41.9 µM.
In the case of `CC(NC(C)(C)C)C(=O)c1cccc(Cl)c1` (stereo not shown) [bupropion], the Km (CYP2B6 [1]) is reported as 151 µM.
`Cc1ncc2n1-c1ccc(Cl)cc1C(c1ccccc1F)=NC2` [midazolam] gave a Km (CYP3A4 [2]) of 13.9 µM.
In the case of `COc1cc(/C=C/C(=O)CC(=O)/C=C/c2ccc(O)c(OC)c2)ccc1O` [curcumin], the IC50 (CYP3A4 [3]) is reported as 21 ± 1.27 µM, the IC50 (CYP2C19) is reported as > 500 µM and the IC50 (CYP2B6 [4]) is reported as 30 ± 2.09 µM. It also gave an IC50 (CYP1A2) of 50.1 ± 2.71 µM.
